Tests used:
Assay type in all cases: physicochemical
[1] = Hygroscopicity test through dynamic vapor sorption (DVS); conditions: for Hygroscopicity (25° C./80% RH): DVS; for Morphology Change: after DVS hygroscopicity test
Text: Experimental Example 3. Hygroscopicity Test Through Dynamic Vapor Sorption (DVS)
From a pharmaceutical point of view, it is desired to maintain the initial moisture and morphology without absorbing moisture even in a moisture environment.

[2] = Stability test of crystalline forms A and B (25° C./60% RH and 40° C./75% RH, 1 week); conditions: for Increase of impurities under given conditions: 25° C./60% RH and 40° C./75% RH; for Increase of impurities under given conditions / Change of crystalline form: in words
Text: Experimental Example 4. Stability Test
(§1) From a pharmaceutical point of view, the stability of an active ingredient is very important. It is not preferable pharmaceutically that impurities are excessively produced or the crystalline form is changed under a storage condition.

[3] = Stability test under storage condition at room temperature (crystalline form A, up to 6 months); conditions: for Crystalline form / Purity (%): room temperature storage
Text: Experimental Example 5. Stability Test Under Storage Condition
as §1

[4] = storage conditions at room temperature, in words

| Hygroscopicity (25° C./80% RH) [1] | Morphology Change [1] | Increase of impurities under given conditions [2] | Final crystalline form ([2]; 25° C./60% RH, 1 week) | HPLC Purity (area %) ([2]; 25° C./60% RH, 1 week) | Final crystalline form ([2]; 40° C./75% RH, 1 week) | HPLC Purity (area %) ([2]; 40° C./75% RH, 1 week) | HPLC Purity (area %) ([2]; Initial) | SMILES | also measured |
| --- | --- | --- | --- | --- | --- | --- | --- | --- | --- |
| 0.07% | No | impurities were not increased | form A | 99.71 area % | form A | 99.66 area % | 99.55 area % | CNC(=S)NCc1ccc(OCc2ccccc2)cc1 [Crystalline form A, 1-(4-benzyloxy-benzyl)-3-methyl-thiourea] | Moisture content compared between forms ([1]; 80% moisture condition, in words): contains less moisture under 80% moisture condition than crystalline form B; Crystalline form ([3]; 1 month): form A; Purity (%) ([3]; 1 month): 100.0%; Crystalline form ([3]; 3 months): form A; Purity (%) ([3]; 3 months): 100.0%; Crystalline form ([3]; 6 months): form A; Purity (%) ([3]; 6 months): 100.0%; Crystalline form ([3]; Initial): form A; Purity (%) ([3]; Initial): 100.0%; Change of crystalline form [3, 4]: the crystalline form was not changed; Increase of impurities [3, 4]: impurities were not increased |
| 0.20% | No | impurities were not increased | forms A + B | 99.70 area % | form A | 99.72 area % | 99.49 area % | CNC(=S)NCc1ccc(OCc2ccccc2)cc1 [Crystalline form B, 1-(4-benzyloxy-benzyl)-3-methyl-thiourea] | Change of crystalline form ([2]; acceleration condition): all changed into crystalline form A; Change of crystalline form ([2]; storage condition at room temperature): being changed into crystalline form A |

From patent publication US11390582B2, “Polymorphs of 1-(4-benzyloxy-benzyl)-3-methyl-thiourea” (Seoul National University R&DB Foundation, priority 2019, dated 2022)
